The test deals with GABA-A receptor; anion channel. Briefly: Inhibition of [3H]flunitrazepam binding to GABA-A central benzodiazepine receptor of bovine cerebral cortical membranes. More on the design: species or system Bos taurus.

Drawing on ChEMBL document CHEMBL1128077, “6,3'-Dinitroflavone, a novel high affinity ligand for the benzodiazepine receptor with potent anxiolytic properties” (Bioorg Med Chem Lett, 1995), this text covers Ki for two compounds.

Structures are written as SMILES.

The compound `O=c1cc(-c2cccc([N+](=O)[O-])c2)oc2ccc([N+](=O)[O-])cc12` showed a Ki of 0.012 µM. This counts as double-digit nanomolar.
Consider `O=c1cc(-c2ccc([N+](=O)[O-])cc2)oc2ccc([N+](=O)[O-])cc12`, for which the Ki stood at 17 µM.

One may read the Ki as the dissociation constant of the complex between target and ligand, obtained from inhibition or displacement. A low value points to a stronger hold on the target.
